Reference: publication PMC3445454, “Broad and Cross-Clade CD4^+ T-Cell Responses Elicited by a DNA Vaccine Encoding Highly Conserved and Promiscuous HIV-1 M-Group Consensus Peptides” (PLoS ONE, 2012)
Changes are numbered by the printed parent chain. Read-outs that look alike come from different tables or passages of the source. Ends that are not written are not given here.

Experiments:
Assay in all cases: biochemical
Type in all cases: binding
HLA-DR DRB1*04:05 = HLA-DR DRB1*04:05 (Homo sapiens, UniProt P01903+P01911, A100R/A169T/D86S/F76Y/I96L/K127E/L162R/M171V/N62H/P40V/Q125Y/R42H/S133A/S149N/S66Y/V115G/V209L/W38E)
HLA-DR DRB1*11:01 = HLA-DR DRB1*11:01 (Homo sapiens, UniProt P01903+P01911, A100R/A169T/A87E/I96F/K41T/L162R/M171V/P40S/Q125H/Q178H/Q39Y/Q99D/R42S/S66Y/T262R/V115G/W38E)
Sequence of HLA-DR DRB1*11:01 (P01903 26-254 limits assumed, other chains not shown): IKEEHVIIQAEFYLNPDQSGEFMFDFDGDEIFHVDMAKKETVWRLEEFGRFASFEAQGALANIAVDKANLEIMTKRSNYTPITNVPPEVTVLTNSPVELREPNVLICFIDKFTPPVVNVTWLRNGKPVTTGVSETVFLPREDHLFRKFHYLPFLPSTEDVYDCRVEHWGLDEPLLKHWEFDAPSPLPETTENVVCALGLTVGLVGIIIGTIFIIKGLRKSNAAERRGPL
HLA-DR DRB1*12:01 = HLA-DR DRB1*12:01 (Homo sapiens, UniProt P01903+P01911, A100R/A169T/D57E/D86V/F55L/H45Y/K41T/L162R/M171V/P40S/Q125H/Q178H/Q39Y/Q99D/R42G/S66L/T262R/V114A/V67L/W38E/Y59H/Y61H/Y89S)
HLA-DR DRB1*16:02 = HLA-DR DRB1*16:02 (Homo sapiens, UniProt P01903+P01911, A100R/F76Y/I96L/Q99D/V115G)
HLA-DR DRB3*01:01 = HLA-DR DRB3*01:01 (Homo sapiens, UniProt P01903+P79483)
HLA-DR DRB3*02:02 = HLA-DR DRB3*02:02 (Homo sapiens, UniProt P01903+P79483, A212P/D57E/F66Y/L67A/R103Q/R218S/R40L/S89Y/T80R/V86D/Y55F/Y59H)
Sequence of HLA-DR DRB3*02:02 (P01903 26-254 limits assumed): as the sequence (P01903 26-254 limits assumed, other chains not shown) above
Sequence of HLA-DR DRB3*02:02 (P79483 30-266 R40L/Y55F/D57E/Y59H/F66Y/L67A/T80R/V86D/S89Y/R103Q/A212P/R218S limits assumed): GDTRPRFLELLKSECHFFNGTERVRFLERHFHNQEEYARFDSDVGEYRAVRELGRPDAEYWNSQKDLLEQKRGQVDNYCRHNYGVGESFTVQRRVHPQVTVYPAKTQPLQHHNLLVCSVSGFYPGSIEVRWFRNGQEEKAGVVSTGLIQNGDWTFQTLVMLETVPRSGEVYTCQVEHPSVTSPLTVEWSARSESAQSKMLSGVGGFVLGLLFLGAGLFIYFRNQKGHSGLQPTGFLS
HLA-DR DRB5*01:01 = HLA-DR DRB5*01:01 (Homo sapiens, UniProt P01903+Q30154)
[1] = target: T1, HLA-DP DPA1*01:03/DPB1*02:01 (Homo sapiens, UniProt P04440+P20036, A65V/A84D/A85E/K98E)
T1 sequence (P20036 29-260): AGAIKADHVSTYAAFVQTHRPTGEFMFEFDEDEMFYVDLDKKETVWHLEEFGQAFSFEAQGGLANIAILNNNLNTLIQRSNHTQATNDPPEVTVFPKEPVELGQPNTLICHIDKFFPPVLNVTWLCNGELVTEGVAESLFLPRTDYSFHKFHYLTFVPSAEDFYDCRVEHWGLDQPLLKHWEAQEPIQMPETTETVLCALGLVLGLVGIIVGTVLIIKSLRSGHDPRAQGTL
T1 sequence (P04440 30-258 A65V/A84D/A85E/K98E): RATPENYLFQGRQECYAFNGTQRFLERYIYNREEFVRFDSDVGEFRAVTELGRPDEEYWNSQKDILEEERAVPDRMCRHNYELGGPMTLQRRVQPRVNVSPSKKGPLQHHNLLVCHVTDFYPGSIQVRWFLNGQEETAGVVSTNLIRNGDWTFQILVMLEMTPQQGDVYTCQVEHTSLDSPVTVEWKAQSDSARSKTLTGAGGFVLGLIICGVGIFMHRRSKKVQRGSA

[2] = target: T2, HLA-DP DPA1*02:01/DPB1*05:01 (Homo sapiens, UniProt P04440+P20036, A65V/A84E/F191V/F64L/G113D/G114E/K142R/L158P/M116V/M62Q/P115A/Q81R/R125K/T114A/T199I/T259P/V234M)
T2 sequence (P20036 29-260 A42M/M62Q/Q81R/T114A/K142R/L158P/F191V/T259P): T1 sequence (P20036 29-260) with A14M, M34Q, Q53R, T86A, K114R, L130P, F163V, T231P
T2 sequence (P04440 30-258 F64L/A65V/A84E/G113D/G114E/P115A/M116V/R125K/T199I/V234M): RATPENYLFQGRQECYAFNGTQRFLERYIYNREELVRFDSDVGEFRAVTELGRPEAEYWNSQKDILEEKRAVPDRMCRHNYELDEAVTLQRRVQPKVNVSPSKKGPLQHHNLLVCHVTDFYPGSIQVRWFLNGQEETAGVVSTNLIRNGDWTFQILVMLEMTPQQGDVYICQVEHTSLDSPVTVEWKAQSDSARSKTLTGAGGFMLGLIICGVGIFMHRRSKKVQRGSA

[3] = target: T3, HLA-DP DPA1*02:01/DPB1*14:01 (Homo sapiens, UniProt P04440+P20036, A65V/A84D/A85E/E86D/F191V/F38H/G113D/G114E/G40L/I94L/K142R/L158P/L37V/M105V/M116V/M62Q/P115A/Q81R/R125K/T114A/T199I/T259P)
T3 sequence (P20036 29-260 A42M/M62Q/Q81R/T114A/K142R/L158P/F191V/T259P): T1 sequence (P20036 29-260) with A14M, M34Q, Q53R, T86A, K114R, L130P, F163V, T231P
T3 sequence (P04440 30-258 L37V/F38H/G40L/A65V/A84D/A85E/E86D/I94L/M105V/G113D/G114E/P115A/M116V/R125K/T199I/R223Q): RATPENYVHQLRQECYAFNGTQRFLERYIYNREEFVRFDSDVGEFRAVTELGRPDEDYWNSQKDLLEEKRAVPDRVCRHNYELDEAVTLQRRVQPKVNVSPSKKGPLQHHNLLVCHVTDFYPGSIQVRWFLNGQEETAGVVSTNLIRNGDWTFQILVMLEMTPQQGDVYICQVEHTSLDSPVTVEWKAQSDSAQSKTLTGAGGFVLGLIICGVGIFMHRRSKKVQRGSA

[4] = target: T4, HLA-DP DPA1*01:03/DPB1*20:01 (Homo sapiens, UniProt P04440+P20036, A65V/A84D/A85E/E86D/F38Y/G113D/G114E/G40L/I94L/L37V/M116V/P115A/R125K/T199I); conditions: read-out: Binding capacity/IC50 (nM) DPA1*01:03 DPB1*20:01
T4 sequence (P20036 29-260): T1 sequence (P20036 29-260)
T4 sequence (P04440 30-258 L37V/F38Y/G40L/A65V/A84D/A85E/E86D/I94L/G113D/G114E/P115A/M116V/R125K/T199I/V234M): T3 sequence (P04440 30-258 L37V/F38H/G40L/A65V/A84D/A85E/E86D/I94L/M105V/G113D/G114E/P115A/M116V/R125K/T199I/R223Q) with H9Y, V76M, Q194R, V205M

[5] = read-out: Binding capacity/IC50 (nM) DRB1*04:05
[6] = read-out: Binding capacity/IC50 (nM) DRB1*11:01
[7] = read-out: Binding capacity/IC50 (nM) DRB1*12:01
[8] = read-out: Binding capacity/IC50 (nM) DRB1*16:02
[9] = read-out: Binding capacity/IC50 (nM) DRB3*01:01
[10] = read-out: Binding capacity/IC50 (nM) DRB3*02:02
[11] = read-out: Binding capacity/IC50 (nM) DRB5*01:01
[12] = read-out: Binding capacity/IC50 (nM) DPA1*01:03 DPB1*02:01
[13] = read-out: Binding capacity/IC50 (nM) DPA1*02:01 DPB1*05:01
[14] = read-out: Binding capacity/IC50 (nM) DPA1*02:01 DPB1*14:01

Molecule | IC50 (HLA-DR DRB1*04:05; [5]) [nM] | IC50 (HLA-DR DRB1*11:01; [6]) [nM] | IC50 (HLA-DR DRB1*12:01; [7]) [nM] | IC50 (HLA-DR DRB1*16:02; [8]) [nM] | IC50 (HLA-DR DRB3*01:01; [9]) [nM] | IC50 (HLA-DR DRB3*02:02; [10]) [nM] | IC50 (HLA-DR DRB5*01:01; [11]) [nM] | IC50 [1, 12] [nM] | IC50 [2, 13] [nM] | IC50 [3] [nM] | IC50 [4] [nM] | IC50 [3, 14] [nM] | IC50 (HLA-DR DRB3*01:01) [nM] | IC50 (HLA-DR DRB3*02:02) [nM] | IC50 (HLA-DR DRB1*04:05) [nM] | IC50 (HLA-DR DRB1*11:01) [nM] | IC50 (HLA-DR DRB1*12:01) [nM] | IC50 (HLA-DR DRB1*16:02) [nM] | IC50 [1] [nM] | also measured
SEELRSLYNTVATLYCVHQ-NH2 [p17(72-90)] | 421 | 1070 | 1680 | 140 | 907 | 6290 | 435 | 67 | 1900 | 9710 | 2310 |  |  |  |  |  |  |  |  | 
CC[C@H](C)[C@H](NC(=O)[C@@H](NC(=O)[C@H](CCCCN)NC(=O)[C@@H](NC(=O)[C@@H]1CCCN1C(=O)[C@H](Cc1c[nH]c2ccccc12)NC(=O)[C@H](CCCNC(=N)N)NC(=O)CNC(=O)[C@H](C)NC(=O)[C@H](CC(C)C)NC(=O)[C@H](CCCCN)NC(=O)[C@H](CC(C)C)NC(=O)[C@@H](NC(=O)[C@H](Cc1ccccc1)NC(=O)[C@H](Cc1ccc(O)cc1)NC(=O)[C@H](C)NC(=O)[C@@H](NC(=O)[C@@H](N)CCC(=O)O)[C@@H](C)O)[C@@H](C)CC)C(C)C)C(C)C)C(N)=O [integrase(96-113)] | 629 | 27 | 1510 | 106 | 583 | 7470 | 4.4 | 697 |  |  | 857 | 12800 |  |  |  |  |  |  |  | IC50 [2]: 621 nM
CC[C@H](C)[C@H](NC(=O)[C@@H]1CCCN1C(=O)[C@H](CCC(=O)O)NC(=O)[C@@H](N)CCCCN)C(=O)N[C@H](C(=O)NCC(=O)N[C@@H](C)C(=O)N[C@@H](CCC(=O)O)C(=O)N[C@H](C(=O)N[C@@H](Cc1ccccc1)C(=O)N[C@@H](Cc1ccc(O)cc1)C(=O)N[C@H](C(=O)N[C@@H](CC(=O)O)C(=O)NCC(=O)N[C@@H](C)C(N)=O)C(C)C)[C@@H](C)O)C(C)C [RT(431-445)] | 50 | 3190 | 293 | 80 |  |  | 148 | 30 | > 30000 | 1350 | 26100 |  | 13 | 611 |  |  |  |  |  | 
VVIQDNSDIKVVPRRKAKII-NH2 [integrase(249-268)] |  |  |  |  | 2650 | 4530 |  |  | 329 |  | 1080 | 3980 |  |  | 6080 | 28 | 2280 | 500 | 7420 | IC50 (HLA-DR DRB5*01:01): 46 nM
CC[C@H](C)[C@H](NC(=O)[C@H](CCCCN)NC(=O)[C@@H](NC(=O)[C@@H](NC(=O)[C@@H](N)CCC(N)=O)[C@@H](C)CC)[C@@H](C)O)C(=O)N[C@@H](CCC(N)=O)C(=O)N[C@@H](CC(N)=O)C(=O)N[C@@H](Cc1ccccc1)C(=O)N[C@@H](CCCNC(=N)N)C(=O)N[C@H](C(=O)N[C@@H](Cc1ccc(O)cc1)C(=O)N[C@@H](Cc1ccc(O)cc1)C(=O)N[C@@H](CCCNC(=N)N)C(=O)N[C@@H](CC(=O)O)C(=O)N[C@@H](CO)C(=O)N[C@@H](CCCNC(=N)N)C(=O)N[C@@H](CC(=O)O)C(=O)N1CCC[C@H]1C(=O)N[C@H](C(=O)N[C@@H](Cc1c[nH]c2ccccc12)C(N)=O)[C@@H](C)CC)C(C)C [integrase(216-235)] | 179 | 288 | 6.6 | 7.1 |  |  | 9.5 |  | 7.6 |  | 39 | 145 | 39 | 414 |  |  |  |  | 311 | 
CC(C)C[C@H](NC(=O)[C@H](CCCCN)NC(=O)[C@@H](NC(=O)[C@H](CC(C)C)NC(=O)[C@@H]1CCCN1C(=O)[C@@H]1CCCN1C(=O)[C@@H](NC(=O)[C@H](CC(N)=O)NC(=O)[C@@H](NC(=O)[C@H](Cc1ccccc1)NC(=O)[C@H](CCC(=O)O)NC(=O)[C@H](Cc1c[nH]c2ccccc12)NC(=O)[C@@H](N)CCC(=O)O)C(C)C)[C@@H](C)O)C(C)C)C(=O)N[C@@H](Cc1c[nH]c2ccccc12)C(=O)N[C@@H](Cc1ccc(O)cc1)C(N)=O [RT(413-427)] |  |  |  |  | 2390 | 4.4 | 14 | 639 | 2820 |  | 1070 | 1200 |  |  | 78 | 312 | 260 | 10 |  | 
